Measurements published in article PMC9030827, “In Vitro Effects of Mitochondria-Targeted Antioxidants in a Small-Cell Carcinoma of the Ovary of Hypercalcemic Type and in Type 1 and Type 2 Endometrial Cancer” (Biomedicines, 2022).

Assays:
Format in all cases: cell-based, human
Hec50co cells [1] = experiment: Intracellular ROS/RNS assessment, DCFH-DA probe; conditions: 10 μM, 2 h immediately after addition
Procedure: (§1) The assay for the evaluation of the levels of ROS/RNS was based on the work of Bak, et al.. All cell lines were cultured in black 96-well plates at a density of 5 × 10^4 cells/well and allowed to adhere for 24 h. After adherence, the cells were incubated with 2′,7′-dichlorodihydrofluorescein diacetate (DCFH-DA) (25 μM) for 1 h at 37 °C in the dark. The DCFH-DA probe allows the detection of intracellular ROS, more specifically H2O2, HO^● and ROO^●, and RNS, more specifically, ^●NO and ONOO^− [51]. The cells were then treated with 10 μM of either Mito6_TPP, Mito6_picol., or Mito6_isoq. The stress inducer H2O2 (200 μM) was used as the positive control. The fluorescence provided by the probe was measured immediately and every 5 min for 2 h at 37 °C using a BioTek Synergy HTX Multi-Mode Microplate Fluorimeter equipped with BioTek Gen5 Data Collection and Analysis Software (BioTek Instruments, Winooski, VT, USA) (excitation: 485 nm; emission: 530 nm).

COV434 cells = experiment: Intracellular ROS/RNS assessment, DCFH-DA probe; conditions: COV434, 10 μM, 2 h immediately after addition
Procedure: as §1

Ishikawa cells = experiment: Intracellular ROS/RNS assessment, DCFH-DA probe; conditions: 10 μM, 2 h immediately after addition
Procedure: as §1

[2] = test system: Ishikawa, Hec50co, COV434, and HFF-1 cells; experiment: Cell viability (MTT and NR assays), statements over all cell lines
Procedure: The Ishikawa, Hec50co, COV434, and HFF-1 cell lines were plated at a density of 5 × 10^4 cells/well in transparent 96-well plates. After 24 h, the cells were treated with Mito6_TPP, Mito6_picol., or Mito6_isoq. (0.01–100 μM) and incubated at 37 °C with 5% CO2 for 24, 48, or 72 h. […] The conditions of the methylthiazolyldiphenyl-tetrazolium bromide (MTT) assay were adapted from the work of Banerjee et al.. Briefly, MTT was added to a final concentration of 0.5 mg/mL, and the cells were incubated for 3 h at 37 °C with 5% CO2. After the 3 h, purple MTT formazan crystals were dissolved by agitation for 15 min in a solution of DMSO/isopropanol (ratio 3:1) and quantified spectrophotometrically at 540 nm. The neutral red (NR) assay conditions were based on the work developed by Repetto et al.. Briefly, after the incubation time, cells were incubated with NR at 40 μg/mL in an FBS-free cell medium for 3 h. The cells were then incubated with a solution of 50% ethanol (96% v/v), 49% deionized water, and 1% glacial acetic acid, with shaking for 15 min. The NR extracted from the cells was measured at 540 nm. […] For all assays, the absorbance was read using a BioTek Synergy HTX Multi-Mode Microplate Reader equipped with BioTek Gen5 Data Collection and Analysis Software (BioTek Instruments, Winooski, VT, USA).

Hec50co cells [3] = experiment: Cell morphology by Giemsa staining; conditions: 72 h, 5 μM Mito6_TPP, 20 μM Mito6_picol., 10 μM Mito6_isoq.
Procedure: Morphological changes in all cell lines were evaluated by phase-contrast microscopy (Eclipse TS100 Inverted Microscope, Nikon, Tokyo, Japan) and Giemsa staining. […] The cells were plated in 24-well plates with coverslips using the densities of 1 × 10^5 cells/well in Ishikawa and Hec50co and 2.5 × 10^5 cells/well in COV434 and HFF-1. After adherence, the cells were treated with Mito6_TPP (5 μM), Mito6_picol. (20 μM), or Mito6_isoq. (10 μM) and incubated at 37 °C with 5% CO2 for 72 h. For Giemsa staining, the cells were fixated with paraformaldehyde 4% in Phosphate Buffered Saline (PBS) for 15 min, stained with Giemsa solution for 30 min, mounted with DPX, and observed through bright field microscopy. For Höechst staining, the cells were incubated with 0.5 μg/mL Höechst 33342 in PBS for 20 min in the dark, mounted in Fluoroshield, and observed under a fluorescence microscope equipped with an excitation filter with maximum transmission at 360/400 nm. In both stainings, the cells were observed using the microscope Eclipse CI (Nikon, Japan) and the images were processed with Nikon NIS Elements Image Software (Nikon, Japan).

Structure (SMILES)	Intracellular ROS levels vs untreated cells (Hec50co cells [1])	Intracellular ROS levels vs untreated cells (COV434 cells)	Intracellular ROS levels vs untreated cells (Ishikawa cells)	Lowest concentration inducing a significant decrease in cell viability [2] [µM]	Cell morphology changes (Giemsa staining) (Hec50co cells [3])
O=C(/C=C/c1ccc(O)c(O)c1)NCCCCCCCCCC[P+](c1ccccc1)(c1ccccc1)c1ccccc1 [Mito6_TPP]	faster and more accentuated decrease in ROS levels	faster and more accentuated decrease in ROS levels	faster and more accentuated decrease in ROS levels	1	altered cell shapes and indications of chromatin condensation
Cc1cc[n+](CCCCCCCCCCNC(=O)/C=C/c2ccc(O)c(O)c2)cc1 [Mito6_picol.]	–	no effects	–	–	did not induce any morphological changes
